In general, IC50 refers to the concentration that gives 50% inhibition.

Structures are written as SMILES. Entries after “also recorded” stand apart in the source; their conditions may differ. Like-named read-outs stand apart in the source and are kept apart here.

We go through 10 molecules from US9994556B2, “Triazole modified coumarin and biphenyl amide-based HSP90 inhibitors” (THE UNIVERSITY OF KANSAS, priority 2014, dated 2018).

The test system of assay [1] is MCF-7 cells. The experiment in a line: MTS/PMS cell viability assay, MCF-7. Type of assay: cell-based. As to conditions: Homo sapiens, MCF7. As to the method:
(§1) a) MTS/PMS Cell Viability Assay (SKBr3 and MCF-7 Cells)
(§2) Cells were maintained in a 1:1 mixture of Advanced DMEM/F12 (Gibco) supplemented with non-essential amino acids, L-glutamine (2 mM), streptomycin (500 μg/mL), penicillin (100 units/mL), and 10% FBS. Cells were grown to confluence in a humidified atmosphere (37° C., 5% CO2), seeded (2000/well, 100 μL) in 96-well plates, and allowed to attach overnight. Compound at varying concentrations in DMSO (1% DMSO final concentration) was added, and cells were returned to the incubator for 72 hr. At 72 hr, the number of viable cells was determined using an MTS/PMS cell proliferation kit (Promega) per the manufacturer's instructions. Cells incubated in 1% DMSO were used at 100% proliferation, and values were adjusted accordingly. IC50 values were calculated from separate experiments performed in triplicate using GraphPad Prism.

Assay [2] concerns SKBr3 cells. The experiment in a line: MTS/PMS cell viability assay, SKBr3. The assay is classed as cell-based. To be noted: Homo sapiens, SK-BR-3, 72 hr, mean ± standard deviation, read-out: IC50 SKBr3. On the procedure: as §1, §2
Assay [3] concerns Hsp90 client proteins Her2, Akt, Raf-1 and CDK6. The experiment in a line: Western blot analyses of Hsp90 client protein degradation in MCF-7 cell lysates. Type of assay: cell-based, human. As to conditions: MCF-7 lysates, 24 h; L = 1/2 and H = 5 times the antiproliferative IC50. On the procedure:
MCF-7 cells were cultured as described above and treated with various concentrations of drug, Geldanamycin (GDA or G) in DMSO (1% DMSO final concentration), or vehicle (DMSO) for 24 hr. Cells were harvested in cold PBS and lysed in RIPA lysis buffer containing 1 mM PMSF, 2 mM sodium orthovanadate, and protease inhibitors on ice for 1 hr. Lysates were clarified at 14000 g for 10 min at 4° C. Protein concentrations were determined using the Pierce BCA protein assay kit per the manufacturer's instructions. Equal amounts of protein (15 μg) were electrophoresed under reducing conditions, transferred to a PVDF membrane, and immunoblotted with the corresponding specific antibodies. Membranes were incubated with an appropriate horseradish peroxidase-labeled secondary antibody, developed with a chemiluminescent substrate, and visualized.

Assay [4] has as its system MDA-MB-468LN cell line. The experiment in a line: Promega CellTiter-Glo (CTG) luminescent assay, MDA-MB-468LN. The assay is classed as cell-based. As to conditions: Homo sapiens, 72 hr, mean ± standard deviation. As to the method:
(§3) b) Promega CellTiter-Glo (CTG) Luminescent Assay
(§4) Antiproliferative activities against MDA-MB-468LN, MDA1986 and JMAR cell lines were performed with 384-well white plates with the Promega CellTiter-Glo (CTG) luminescent assay with 72 hr compound treatment. Data analysis was performed using GraphPad Prism. Selected data were further checked with MTS/PMS cell viability assay with 96-well plates, which correlated well with Promega CellTiter-Glo luminescent assay.

The test system of assay [5] is JMAR cell line. The experiment in a line: Promega CellTiter-Glo (CTG) luminescent assay, JMAR. Type of assay: cell-based. As to conditions: 72 hr, mean ± standard deviation. As to the method: as §3, §4
Assay [6] concerns MDA1986 cell line. In words: Promega CellTiter-Glo (CTG) luminescent assay, MDA1986. As to conditions: 72 hr, mean ± standard deviation, read-out: IC50 MDA1986. The assay is classed as cell-based. As to the method: as §3, §4
(Cellular ATP, detected with luciferase, serves as a proxy for viable cell number.)

In assay [7] the test system is LNCaP cells. The experiment in a line: Sulforhodamine B assay, LNCaP. Type of assay: cell-based. As to conditions: Homo sapiens, mean ± standard deviation. On the procedure:
(§5) c) Sulforhodamine B Assay
(§6) The sulforhodamine B assay is used to measure drug-induced cytotoxicity and cell proliferation for large-scale drug-screening applications. Its principle is based on the ability of the protein dye sulforhodamine B to bind electrostatically on pH dependent protein basic amino acid residues of trichloroacetic acid-fixed cells. The aim is to evaluate samples showing selective growth inhibition or cell killing of particular tumor cell lines.
(§7) The SRB assay is performed by treating cells using a 10 point dose-response curve. The cells are fixed with trichloroacetic acid solution and stained with sulforhodamine B dye. The stained cells are then solubilized with 10 mM Tris buffer and read for absorbance at 565 nm.
(§8) Percentage growth is calculated at each of the drug concentration levels using the absorbance raw data.
(§9) Percentage growth inhibition is calculated as: [(Ti−Tz)/(C−Tz)]×100 for concentrations for which Ti≥Tz. [(Ti−Tz)/(Tz)]×100 for concentrations for which Ti<Tz.
(§10) Ti=Absorbance of wells at a given drug concentration level.
(§11) Tz=Absorbance time zero wells
(§12) C=Absorbance of untreated wells (media and cells only)
(§13) After growth inhibition values have been calculated, the data is plotted on Graphpad Prism software. Data is entered and plotted on a sigmoidal dose-response curve using non-linear regression.
Background: The SRB assay estimates cell density from bound dye.

Assay [8] relates to PC3-MM2 cells. The experiment in a line: Sulforhodamine B assay, PC3-MM2. Type of assay: cell-based. As to conditions: Homo sapiens, PC3MM2, mean ± standard deviation. On the procedure:
as §5, §6, §7, §8, §9, §10, §11, §12, §13

Where [9] appears, read: Table 1 coumarin-based triazoles, 72 hr, mean ± standard deviation, read-out: IC50 MCF-7.
Where [10] appears, read: Table 1 coumarin-based triazoles, at least two experiments in triplicate.
Setting [11] is: Table 1 coumarin-based triazoles.
Where [12] appears, read: Table 2 biphenyl triazole analogues, 72 hr, mean ± standard deviation, read-out: IC50 MCF-7.
Where [13] appears, read: Table 2 biphenyl triazole analogues.

Consider `Cc1c(OC2CCN(C)CC2)ccc2cc(NC(=O)c3cn(-c4cccc(Cl)c4)nn3)c(=O)oc12` [4f, 1-(3-Chlorophenyl)-N-(8-methyl-7-((1-methylpiperidin-4-yl)oxy)-2-oxo-2H-chromen-3-yl)-1H-1,2,3-triazole-4-carboxamide], for which the IC50 in assay [1] (setting [9]) was determined as 1140 ± 180 nM; in assay [2] (setting [10]), 710 ± 140 nM; in assay [4] (setting [11]), 4600 nM; in assay [5] (setting [11]), 6400 nM; in assay [6] (setting [11]) it was 6400 nM; in assay [7] (setting [11]), 13300 ± 11900 nM. Also, in assay [8] (setting [11]), the IC50 turned out to be 3900 ± 5110 nM. In assay [3], the “Hsp90 client proteins Her2, Akt and Raf-1 (Western blot)” value (“Hsp90 client proteins Her2” for short) is listed as “degraded”.

Consider `COc1ccc(Cn2cc(C(=O)Nc3ccc(-c4ccc(OC5CCN(C)CC5)cc4)cc3)nn2)cc1` [5g, 1-(4-Methoxybenzyl)-N-(4′-((1-methylpiperidin-4-yl)oxy)-[1,1′-biphenyl]-4-yl)-1H-1,2,3-triazole-4-carboxamide], for which the IC50 in assay [1] (setting [12]) is 270 ± 60 nM; in assay [1] (read-out: IC50 against MCF-7 cell line), 270 nM; in assay [2] (setting [13]), 160 ± 20 nM; in assay [4] (setting [13]) it was 170 nM; in assay [5] (setting [13]), 610 ± 90 nM; in assay [6] (setting [13]) it was 480 ± 90 nM. The IC50 in assay [7] (setting [13]) is 240 ± 70 nM; in assay [8] (setting [13]), 440 ± 190 nM. Moreover, the “Hsp90 client proteins Her2” value in assay [3] is “decreased; also recorded: Clear degradation”.

In the case of `COc1cccc(Cn2cc(C(=O)Nc3cc4ccc(OC5CCN(C)CC5)c(C)c4oc3=O)nn2)c1` [4o, 1-(3-Methoxybenzyl)-N-(8-methyl-7-((1-methylpiperidin-4-yl)oxy)-2-oxo-2H-chromen-3-yl)-1H-1,2,3-triazole-4-carboxamide], the IC50 in assay [1] (setting [9]) was 1610 ± 60 nM; in assay [2] (setting [10]), 1150 ± 190 nM; in assay [4] (setting [11]), 2690 ± 1330 nM; in assay [5] (setting [11]) it was 1490 ± 310 nM; in assay [6] (setting [11]) it was 1340 ± 310 nM; in assay [7] (setting [11]) it was 3490 ± 300 nM. In assay [8] (setting [11]), this molecule yielded an IC50 of 7200 ± 150 nM. Moreover, the “Hsp90 client proteins Her2” value in assay [3] is given as “degraded”.

Regarding `Cc1c(OC2CCN(C)CC2)ccc2cc(NC(=O)c3cn(CC4CCCCC4)nn3)c(=O)oc12` [4q, 1-(Cyclohexylmethyl)-N-(8-methyl-7-((1-methylpiperidin-4-yl)oxy)-2-oxo-2H-chromen-3-yl)-1H-1,2,3-triazole-4-carboxamide], the IC50 in assay [1] (setting [9]) was found to be 1290 ± 160 nM; in assay [2] (setting [10]), 610 nM; in assay [4] (setting [11]) it was 990 ± 240 nM; in assay [5] (setting [11]) it was 300 ± 260 nM; in assay [6] (setting [11]), 240 ± 320 nM; in assay [7] (setting [11]), 1200 ± 60 nM. The same molecule displayed an IC50 in assay [8] (setting [11]) of 3130 ± 140 nM. The “Hsp90 client proteins Her2” value in assay [3] is listed as “degraded”.

With `CN1CCC(Oc2ccc(-c3ccc(NC(=O)c4cn(-c5ccccc5)nn4)cc3)cc2)CC1` [5a, N-(4′-((1-methylpiperidin-4-yl)oxy)-[1,1′-biphenyl]-4-yl)-1-phenyl-1H-1,2,3-triazole-4-carboxamide], the IC50 in assay [1] (setting [12]) amounted to 1440 ± 180 nM; in assay [2] (setting [13]), 1140 ± 100 nM; in assay [4] (setting [13]), 830 ± 160 nM; in assay [5] (setting [13]), 2200 ± 240 nM; in assay [6] (setting [13]) it was 1300 ± 90 nM; in assay [7] (setting [13]) it was 3890 ± 1090 nM. The same molecule showed an IC50 in assay [8] (setting [13]) of 4260 ± 5590 nM.

Consider `Cc1ccc(Cn2cc(C(=O)Nc3ccc(-c4ccc(OC5CCN(C)CC5)cc4)cc3)nn2)c(Cl)c1` [5n, 1-(2-Chloro-4-methylbenzyl)-N-(4′-((1-methylpiperidin-4-yl)oxy)-[1,1′-biphenyl]-4-yl)-1H-1,2,3-triazole-4-carboxamide], for which the half-maximal inhibitory concentration (IC50) in assay [1] (setting [12]) stood at 200 ± 50 nM; in assay [2] (setting [13]) it was 160 ± 10 nM; in assay [4] (setting [13]), 150 ± 20 nM; in assay [5] (setting [13]) it was 430 ± 250 nM; in assay [6] (setting [13]), 150 ± 60 nM; in assay [7] (setting [13]) it was 50 ± 40 nM. This molecule also registered an IC50 in assay [8] (setting [13]) of 350 ± 120 nM.

Take `CN1CCC(Oc2ccc(-c3ccc(NC(=O)c4cn(Cc5ccc(Cl)cc5)nn4)cc3)cc2)CC1` [5d, 1-(4-Chlorobenzyl)-N-(4′-((1-methylpiperidin-4-yl)oxy)-[1, 1′-biphenyl]-4-yl)-1H-1,2,3-triazole-4-carboxamide]: the IC50 in assay [1] (setting [12]) is 440 ± 40 nM; in assay [2] (setting [13]) it was 320 ± 100 nM; in assay [4] (setting [13]), 740 ± 190 nM; in assay [5] (setting [13]) it was 2300 ± 820 nM; in assay [6] (setting [13]), 1300 ± 370 nM; in assay [7] (setting [13]), 1590 ± 780 nM. The molecule further yielded an IC50 in assay [8] (setting [13]) of 660 ± 210 nM.

As to `Cc1c(OC2CCN(C)CC2)ccc2cc(NC(=O)c3cn(Cc4ccc(F)cc4)nn3)c(=O)oc12` [4m, 1-(4-Fluorobenzyl)-N-(8-methyl-7-((1-methylpiperidin-4-yl)oxy)-2-oxo-2H-chromen-3-yl)-1H-1,2,3-triazole-4-carboxamide], the IC50 in assay [1] (setting [9]) was found to be 1340 ± 190 nM; in assay [2] (setting [10]) it was 1080 ± 10 nM; in assay [4] (setting [11]), 2600 ± 6120 nM; in assay [5] (setting [11]), 2380 ± 5380 nM; in assay [6] (setting [11]), 1770 ± 4100 nM; in assay [7] (setting [11]) it was 3310 nM. In assay [8] (setting [11]), this molecule showed an IC50 of 8820 ± 1140 nM.

With `CN1CCC(Oc2ccc(-c3ccc(NC(=O)c4cn(Cc5ccc(Br)cc5)nn4)cc3)cc2)CC1` [5e, 1-(4-Bromobenzyl)-N-(4′-((1-methylpiperidin-4-yl)oxy)-[1,1′-biphenyl]-4-yl)-1H-1,2,3-triazole-4-carboxamide], the IC50 in assay [1] (setting [12]) came out at 560 ± 40 nM; in assay [2] (setting [13]) it was 490 ± 30 nM; in assay [4] (setting [13]) it was 2800 ± 610 nM; in assay [5] (setting [13]), 7800 nM; in assay [6] (setting [13]) it was 3100 ± 870 nM; in assay [7] (setting [13]), 540 ± 120 nM. Also, it took 19900 ± 27900 nM to reach half-maximal inhibition in assay [8] (setting [13]) (IC50).

For the molecule `Cc1c(OC2CCN(C)CC2)ccc2cc(NC(=O)c3cn(Cc4ccc(Br)cc4)nn3)c(=O)oc12` [4h, 1-(4-Bromobenzyl)-N-(8-methyl-7-((1-methylpiperidin-4-yl)oxy)-2-oxo-2H-chromen-3-yl)-1H-1,2,3-triazole-4-carboxamide], the IC50 worked out at 1360 ± 80 nM in assay [1] (setting [9]); 730 ± 10 nM in assay [2] (setting [10]); 2100 ± 600 nM in assay [4] (setting [11]); 1600 ± 310 nM in assay [5] (setting [11]); 2000 ± 500 nM in assay [6] (setting [11]); 4960 ± 670 nM in assay [7] (setting [11]). In assay [8] (setting [11]), this molecule registered an IC50 of 3800 ± 1420 nM.
